Key:
EGFR [1] = target: T1, EGFR (Homo sapiens, UniProt P00533); experiment: EGFR immunostaining, subcellular localization of the EGFR; type: cell-based; conditions: EGF not necessary
EGFR [2] = target: T1, EGFR; experiment: Drug evaluation / FDA-approved drug library screening using MSDδt=500 ms ratio before and after EGF addition, CHO cells expressing EGFR-GFP; conditions: for MSDδt=500 ms ratio compared with the control: compound addition changed MSDδt=500 ms in an EGF-independent manner; for hit in primary screening (MSDδt=500 ms ratio equal to or greater than threshold = control average + 3×standard deviation): FDA-approved drug library (1134 drugs), EGF 60 nM, among the 53 hit compounds
ErbB3 = ErbB3 (Homo sapiens, UniProt P21860); experiment: Single-molecule imaging of CHO cell expressing ErbB3-GFP, MSD ratio HRG-treated/untreated; type: cell-based; conditions: drug 0.1 to 10,000 nM; HRG saturated (>30 nM); concentration-dependent; FIG. 8A
Protocol: FIGS. 8A and 8B show the relationship between the drug (Sapitinib or Afaitinib) concentration and the receptor diffusion dynamics (MSDδt=500 ms ratio) when the HRG concentration is saturated (>30 nM); here, FIG. 8A is the result for Sapitinib and FIG. 8B is the result for Afaitinib. […] Therefore, it was confirmed that the effect of the phosphorylation inhibitor can be estimated from the change in the molecular dynamics by measuring the diffusion dynamics and calculating the ratio of the MSD values, even for the RTK receptor other than the EGFR.

T1 sequence (P00533 25-1210): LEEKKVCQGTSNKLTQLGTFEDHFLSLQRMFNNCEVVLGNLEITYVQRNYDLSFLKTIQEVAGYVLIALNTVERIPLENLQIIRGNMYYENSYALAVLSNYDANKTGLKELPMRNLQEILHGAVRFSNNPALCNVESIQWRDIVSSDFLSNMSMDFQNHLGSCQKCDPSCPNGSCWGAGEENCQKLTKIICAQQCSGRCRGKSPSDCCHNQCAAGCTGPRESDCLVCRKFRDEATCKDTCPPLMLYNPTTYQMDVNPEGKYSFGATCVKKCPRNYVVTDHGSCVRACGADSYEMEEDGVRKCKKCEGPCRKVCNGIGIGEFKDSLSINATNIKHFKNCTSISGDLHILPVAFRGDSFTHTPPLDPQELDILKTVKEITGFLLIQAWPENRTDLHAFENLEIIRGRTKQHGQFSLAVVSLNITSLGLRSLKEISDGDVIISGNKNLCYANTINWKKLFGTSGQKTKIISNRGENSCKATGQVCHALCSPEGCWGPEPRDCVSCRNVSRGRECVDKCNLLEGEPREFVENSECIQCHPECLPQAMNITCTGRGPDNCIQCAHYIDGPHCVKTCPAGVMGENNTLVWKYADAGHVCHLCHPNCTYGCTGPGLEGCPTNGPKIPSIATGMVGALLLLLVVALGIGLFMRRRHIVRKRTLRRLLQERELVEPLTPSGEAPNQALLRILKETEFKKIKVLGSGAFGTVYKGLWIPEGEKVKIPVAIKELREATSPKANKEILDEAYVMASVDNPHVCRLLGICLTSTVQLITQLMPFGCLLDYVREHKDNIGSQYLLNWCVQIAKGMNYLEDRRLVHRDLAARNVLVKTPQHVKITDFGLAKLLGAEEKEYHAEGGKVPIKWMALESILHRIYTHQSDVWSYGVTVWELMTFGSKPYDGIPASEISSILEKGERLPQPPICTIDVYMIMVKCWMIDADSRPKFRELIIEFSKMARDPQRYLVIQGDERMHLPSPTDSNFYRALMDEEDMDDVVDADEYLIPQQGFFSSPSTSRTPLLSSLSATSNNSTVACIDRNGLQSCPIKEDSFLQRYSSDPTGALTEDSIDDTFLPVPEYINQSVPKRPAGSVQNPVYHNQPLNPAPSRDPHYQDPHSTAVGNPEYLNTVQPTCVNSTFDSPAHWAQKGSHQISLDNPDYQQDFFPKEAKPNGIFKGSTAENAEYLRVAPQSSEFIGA
Chain of ErbB3 (P21860 20-1342): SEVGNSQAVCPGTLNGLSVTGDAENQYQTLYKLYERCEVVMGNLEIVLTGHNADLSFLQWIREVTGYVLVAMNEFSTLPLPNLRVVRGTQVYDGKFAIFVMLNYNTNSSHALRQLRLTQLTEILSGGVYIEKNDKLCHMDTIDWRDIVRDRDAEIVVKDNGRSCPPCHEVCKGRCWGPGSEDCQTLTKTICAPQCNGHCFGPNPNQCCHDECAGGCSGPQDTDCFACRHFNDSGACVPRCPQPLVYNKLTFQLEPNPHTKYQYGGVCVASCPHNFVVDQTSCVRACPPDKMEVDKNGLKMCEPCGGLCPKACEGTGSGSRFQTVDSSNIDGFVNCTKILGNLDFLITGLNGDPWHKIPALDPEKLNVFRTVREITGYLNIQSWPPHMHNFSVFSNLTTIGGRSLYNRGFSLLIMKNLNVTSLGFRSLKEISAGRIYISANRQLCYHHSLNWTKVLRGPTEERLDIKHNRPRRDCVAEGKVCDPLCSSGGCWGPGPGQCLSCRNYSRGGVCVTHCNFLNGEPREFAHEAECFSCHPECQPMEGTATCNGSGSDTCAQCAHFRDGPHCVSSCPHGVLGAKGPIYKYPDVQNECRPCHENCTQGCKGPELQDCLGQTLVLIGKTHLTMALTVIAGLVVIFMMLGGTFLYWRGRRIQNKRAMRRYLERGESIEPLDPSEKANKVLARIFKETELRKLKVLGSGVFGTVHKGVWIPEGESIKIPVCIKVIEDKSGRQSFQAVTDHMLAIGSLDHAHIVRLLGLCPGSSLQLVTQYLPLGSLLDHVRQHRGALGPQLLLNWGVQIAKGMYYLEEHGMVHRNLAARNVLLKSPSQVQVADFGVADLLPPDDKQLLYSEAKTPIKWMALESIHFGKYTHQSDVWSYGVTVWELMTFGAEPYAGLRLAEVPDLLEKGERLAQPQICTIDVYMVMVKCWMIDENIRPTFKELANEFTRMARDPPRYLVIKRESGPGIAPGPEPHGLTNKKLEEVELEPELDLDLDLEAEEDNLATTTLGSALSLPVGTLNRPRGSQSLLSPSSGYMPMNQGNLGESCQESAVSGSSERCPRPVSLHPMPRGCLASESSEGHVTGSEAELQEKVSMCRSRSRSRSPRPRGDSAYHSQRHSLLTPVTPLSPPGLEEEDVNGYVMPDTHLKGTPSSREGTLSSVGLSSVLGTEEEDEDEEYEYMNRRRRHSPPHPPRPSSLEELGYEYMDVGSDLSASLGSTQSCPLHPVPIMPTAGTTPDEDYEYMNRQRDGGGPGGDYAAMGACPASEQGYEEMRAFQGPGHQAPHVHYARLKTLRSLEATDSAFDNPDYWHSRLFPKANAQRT

SMILES	effect on the subcellular localization of the EGFR (EGFR [1])	MSDδt=500 ms ratio compared with the control (EGFR [2])	hit in primary screening (MSDδt=500 ms ratio equal to or greater than threshold = control average + 3×standard deviation) (EGFR [2])	effect on reduction of receptor mobility (MSDδt=500 ms ratio) by HRG, ErbB3 (ErbB3)
COc1cccc2c1C(=O)c1c(O)c3c(c(O)c1C2=O)C[C@@](O)(C(C)=O)C[C@@H]3O[C@H]1C[C@H](N)[C@H](O)[C@H](C)O1 [Daunorubicin]	–	–	included	–
O=C(OCC(O)CO)c1ccccc1Nc1ccnc2cc(Cl)ccc12 (stereo not drawn) [Glafenine]	EGFR was incorporated into the cell	significantly different from the control	–	–
C#Cc1cccc(Nc2ncnc3cc(OCCOC)c(OCCO)cc23)c1 [OSI-420]	–	–	included	–
CNC(=O)CN1CCC(Oc2cc3c(Nc4cccc(Cl)c4F)ncnc3cc2OC)CC1 [Sapitinib]	–	–	–	inhibited the reduction of the receptor mobility

Further lines, with some results ahead:

effect on the subcellular localization of the EGFR (EGFR [1])	MSDδt=500 ms ratio compared with the control (EGFR [2])	SMILES	hit in primary screening (MSDδt=500 ms ratio equal to or greater than threshold = control average + 3×standard deviation) (EGFR [2])	effect on reduction of receptor mobility (MSDδt=500 ms ratio) by HRG, ErbB3 (ErbB3)
EGFR was incorporated into the cell	significantly different from the control	Oc1c(Br)cc(Br)c2cccnc12 [Broxyquinoline]	–	–
EGFR was incorporated into the cell	significantly different from the control	Cc1cn(-c2cc(NC(=O)c3ccc(C)c(Nc4nccc(-c5cccnc5)n4)c3)cc(C(F)(F)F)c2)cn1 [Nilotinib]	–	–

Reference: patent publication US20260243779A1, “METHOD FOR EVALUATING RECEPTOR-TYPE TYROSINE KINASE ACTIVITY” (The University of Osaka, priority 2023, published 2026)
